Experimental data as given in patent publication US7034005B2, “Use of agent for suppressing infection and proliferation of human immunodeficiency syndrome virus” (The Kitasato Institute, priority 2002, dated 2006).

Tests used:
[1] = tested on: HIV-1BAL strain infected M-MΦ; assay: Cytopathy (MGC formation) of HIV-1 infected M-MΦ; assay type: cell-based, human; details: 30 μM, HIV-1BAL (FIG. 17)
Experimental: Formation of cell cluster and cell fusion was observed from the 2nd day of the incubation only in virus producing M-MΦ and formation of multinucleatic giant cells were recognized from the culture day 4–7 [refer to FIG. 2(A)]. On the other hand, in GM-MΦ without generation of virus, nomorphological changes were observed [refer to FIG. 2(B)].
M-MΦ was subjected to contact infection with HIV-1BAL strain for 2 hours, added 30 μM of EM, EM201, EM202, EM703 or CAM, incubated and observed the cell morphology.

[2] = tested on: tyrosine kinase Hck protein; assay: Expression of tyrosine kinase Hck protein in M-MΦ by Western blotting; assay type: cell-based, human; details: for expression of tyrosine kinase Hck protein in HIV-1 infected M-MΦ: 30 μM, compared with DMSO control (FIG. 18); for expression of tyrosine kinase Hck protein in HIV-1 infected M-MΦ / expression of tyrosine kinase Hck protein in oligonucleotide pretreated M-MΦ after infection: day 2 after HIV-1BAL infection; for expression of tyrosine kinase Hck protein in oligonucleotide treated M-MΦ before infection: probe 2 μM for 24 hours, further 24 hours incubation, compared with lipofectin control (L) (FIG. 9)
Text: Expression of tyrosine kinase Hck protein and transcription factor C/EBPβ protein in macrophage was examined after solubilizing the macrophage in SDS-PAGE sample buffer, performing 10% SDS-polyacrylamide electrophoresis, transferring the protein on the gel to immobilon P membrane (Millipore Inc. U.S.) and checking antibodies against these proteins by Western blotting. Antibody to tyrosine kinase Hck protein (N-30) and antibody to C/EBPβ (C-19) were purchased from Santacluse Inc. (U.S.). Western blotting was detected by Amersham ELC Regent (Amersham International plc, Buckinghamshire, UK). Strength of bands was expressed by PSL (photostimulating luminescence) value (A/mm^2).
These probes were dissolved in the serum free RPMI1640 medium, in which lipofectin (Life Technology Inc., U.S.) was dissolved at 5 μM concentration, at room temperature for 30 minutes, added with RPMI1640 medium, which contains 10% FCS, to the macrophage (final concentration 2 μM) and incubated at 37° C. for 24 hours. Thereafter, cells were washed with the medium, added the RPMI1640 medium containing 10% FCS without oligonucleotide, further cultured for 24 hours, and then infected with HIV-1.
Consequently, M-MΦ was subjected to contact infection with HIV-1BAL strain for 2 hours, added 30 μM of EM, EM201, EM202, EM703 or CAM, incubated and expression of tyrosine kinase Hck protein was observed on day 2 after the infection by Western blotting.

ERK1/2 = assay: Tyrosine phosphorylation (activation) of ERK1/2 in HIV-1 infected M-MΦ by Western blotting; assay type: cell-based, human; details: 30 μM, HIV-1BAL infected M-MΦ, compared with DMSO (FIG. 19(B))
Experimental: (§1) P38MAPK and ERK1/2 activation were determined using P38MAPK antibody, anti-ERK1/2 antibody, anti-tyrosine phosphorylation P38MAPK antibody and anti-tyrosine phosphorylation ERK1/2 antibody (New England Biolabs, Inc. U.S.), and phosphorylation reaction of these molecules was determined by Western blotting.
In any groups, total amount of ERK1/2 (total sum of phosphorylated and non-phosphorylated p38MARK) was equal [refer to FIG. 19(B)].

p38MAPK = assay: Tyrosine phosphorylation (activation) of p38MAPK in HIV-1 infected M-MΦ by Western blotting; assay type: cell-based, human; details: 30 μM, day 2 of culture, HIV-1BAL infected M-MΦ, compared with DMSO (FIG. 19(A))
Experimental: as §1
Thirty μM of EM, EM201, EM202, EM703 or CAM were added to M-MΦ infected with HIV-1BAL strain, tyrosine phosphorylation of p38MAPK was detected on day 2 of the culture by Western blotting. […] In any groups, total amount of p38MAPK (total sum of phosphorylated and non-phosphorylated p38MARK) was equal.

[3] = tested on: HIV-1BAL strain in GM type macrophage (GM-MΦ) derived from human monocytes; assay: Proliferation of HIV-1 in GM-MΦ: p24 protein in culture supernatant by sandwich ELISA; assay type: cell-based; details: 30 μM, HIV-1BAL, all assay points up to 14 days, similar to DMSO control (FIG. 14)
Experimental: (§2) Macrophages derived from monocytes were prepared by culturing the recovered monocytes in the presence of M-CSF (macrophage colony-stimulating factor) (10^4 U/ml, provided by Morinaga Milk Co.), granulocytes and granulocyte-macrophage colony-stimulating factor, GM-CSF) (500 U/ml, provided by Japan Scheling Plough Co., Osaka, or purchased from R & S Genzyme-TECHNE Inc.) with RPMI1640 medium added with FCS10% (Nissui Seiyaku Co., Tokyo) for 7–8 days.
(§3) The macrophage prepared by differential induction of M-CSF from human monocytes is designated as M type macrophage (M type MΦ or M-MΦ) and the macrophage prepared by differential induction of GM-CSF from human monocytes is designated as GM type macrophage (GM type MΦ or GM-MΦ) Further, alveolar macrophage (alveolar MΦ or A-MΦ) was prepared as follows. Cells in the alveolar lavage liquid obtained from the alveolar lavage of healthy volunteers were recovered, suspended and adhered to plastics, then the non-adhered cells were washed out and the remained adhered cells were designated as the alveolar MΦ.
(§4) Infection of HIV-1 to macrophage was performed as follows. Macrophage directed viral strains, HIV-1JR-FL and HIV-1BAL, were infected for 2 hours in contact with M-MΦ, GM-MΦ and A-MΦ (adjusted to 2.5×10^5/well, Flacon No3043: Becton Dickinson Labware, Inc. U.S.)at low concentration (p24 antigen titer 50 ng/ml, TCID50=3000/ml virus to final concentration at 100 pg/ml), and non-adsorbed virus to the macrophage was washed out, and cultured with adding fresh medium. In case of the medium with M-MΦ, M-CSF was added (10^4 U/ml), and that of the medium with GM-MΦ, GM-CSF was added (500 U/ml).
(§5) Proliferation of virus was examined with the released viral particles in the culture supernatant after the infection by the sandwich ELISA using two types of anti-p24 antibody (Nu24 and 10B5^13). The following JAM62 and JAM65 were used as LTR (HIV long terminal repeat)-gap gene primer. The following JAM63 and JAM 64 were used as the internal primer for the nested PCR. • JAM62: • 5′-[…]-3′ (SEQ ID NO: 1) • JAM65: • 5′-[…]-3′ (SEQ ID NO: 2) • JAM63: • 5′-GTGTOACTCTGGTAACTAGAGATCC-3′ (SEQ ID NO: 3) • JAM64: • 5′-[…]-3′ (SEQ ID NO: 4) (1-4) Assay of Expression of Tyrosine Kinase Hck Protein and Transcription Factor C/EBPβ Protein
(§6) In order to show growth suppression effect of the present invention, among macrolide derivatives, EM, EM201, EM202, EM703, CAM, EM722, EM730, EM732, EM736, EM734, EM735, EM747, EM748, EM743, EM746, EM750 or EM751 was dissolved in DMSO with each 100 mM concentration, and used in dilution with the medium thereafter. A control group was M-MΦ treated only with DMSO used for dissolving macrolide derivatives.
(§7) M-MΦ and GM-M Φ were subjected to contact infection with HIV-1BAL strain for 2 hours, added 30 μM of EM, EM201, EM202, EM703, CAM,EM722, EM730, EM732, EM736, EM734, EM735, EM747, EM748, EM743, EM746, EM750 or EM751, incubated for 14 days and amount of p24 protein in the cultured supernatant was assayed in the time-dependent manner.

[4] = tested on: HIV-1BAL strain in M type macrophage (M-MΦ) derived from human monocytes; assay: Proliferation of HIV-1 in M-MΦ: p24 protein in culture supernatant by sandwich ELISA; assay type: cell-based; details: for suppression of viral generation (p24 in culture supernatant) in M-MΦ: 30 μM, HIV-1BAL, 14 days of culture, compared with DMSO control (FIG. 13); for viral proliferation at 300 μM in M-MΦ: also observed in DMSO control, ascribed to cytotoxicity of DMSO; for concentration dependence of suppressive action on HIV-1BAL in M-MΦ: various concentrations (FIG. 16); for p24 protein in culture supernatant of oligonucleotide pretreated M-MΦ: day 4, 7 and 10 after HIV-1BAL infection, compared with lipofectin control (L) (FIG. 10)
Experimental: as §2, §3, §4, §5, §6, §7

CCC(O)C(C)(O)C1OC(=O)C(C)C(OC2CC(C)(OC)C(O)C(C)O2)C(C)C(OC2OC(C)CC(NC)C2O)C2(C)CC(C)=C(O2)C1C (centres unmarked) [EM703, de(3′-N-methyl)-8,9-anhydro-pseudoerythromycin A 6,9-hemiketal]
cytopathic effect (MGC formation) in HIV-1 infected M-MΦ [1]: no cytopathic effect such as MCG formation was observed | expression of tyrosine kinase Hck protein in HIV-1 infected M-MΦ [2]: strongly suppressed | tyrosine phosphorylation of ERK1/2 (ERK1/2): promotion of tyrosine phosphorylation of ERK1/2 was recognized | tyrosine phosphorylation of p38MAPK (p38MAPK): significantly decreased | viral generation in GM-MΦ [3]: almost no viral generation was recognized | proliferation of virus in M-MΦ at 3 μM [4]: inhibited almost completely the proliferation of virus | suppression of viral generation (p24 in culture supernatant) in M-MΦ [4]: almost no p24 was detected | viral proliferation at 300 μM in M-MΦ [4]: viral proliferation at 300 μM was observed | concentration dependence of suppressive action on HIV-1BAL in M-MΦ [4]: concentration dependent manner

CCC1OC(=O)C(C)C(O[C@H]2C[C@@](C)(OC)[C@@H](O)[C@H](C)O2)C(C)C(O[C@@H]2O[C@H](C)C[C@H](N(C)C)[C@H]2O)C(C)(O)CC(C)C(=O)C(C)C(O)C1(C)O (some centres unmarked) [EM, reference compound]
cytopathic effect (MGC formation) in HIV-1 infected M-MΦ [1]: formation of MGC was slightly recognized | expression of tyrosine kinase Hck protein in HIV-1 infected M-MΦ [2]: the suppression of tyrosine kinase Hck protein was observed, though not so strong | tyrosine phosphorylation of ERK1/2 (ERK1/2): weakly recognized as same in the control group | tyrosine phosphorylation of p38MAPK (p38MAPK): recognized to decrease, though not so strong | viral generation in GM-MΦ [3]: almost no viral generation was recognized | suppression of viral generation (p24 in culture supernatant) in M-MΦ [4]: suppression of viral generation was recognized, though not so strong | viral proliferation at 300 μM in M-MΦ [4]: viral proliferation at 300 μM was observed | concentration dependence of suppressive action on HIV-1BAL in M-MΦ [4]: exhibited suppression of viral production depending upon drug concentration

11-(1′-hydroxypropyl)-3-[2,6-dideoxy-3-C-methyl-α-L-ribo-hexopyranosyl]oxy]-5-[(3,4,6-trideoxy-3-(dimethylamino)-β-D-xylo-hexopyranosyl)oxy]-2,4,6,8,11,14-hexamethyl-10,13,15-tri-oxatricyclo[9.2.1.1.^9.6]-pentadecane-1-one [EM201]
cytopathic effect (MGC formation) in HIV-1 infected M-MΦ [1]: no cytopathic effect such as MCG formation was observed | expression of tyrosine kinase Hck protein in HIV-1 infected M-MΦ [2]: strongly suppressed | tyrosine phosphorylation of ERK1/2 (ERK1/2): promotion of tyrosine phosphorylation of ERK1/2 was recognized | tyrosine phosphorylation of p38MAPK (p38MAPK): significantly decreased | viral generation in GM-MΦ [3]: almost no viral generation was recognized | proliferation of virus in M-MΦ at 3 μM [4]: inhibited almost completely the proliferation of virus | suppression of viral generation (p24 in culture supernatant) in M-MΦ [4]: almost no p24 was detected | viral proliferation at 300 μM in M-MΦ [4]: viral proliferation at 300 μM was observed | concentration dependence of suppressive action on HIV-1BAL in M-MΦ [4]: concentration dependent manner

Hck-NS: Phosphorothioate-modified non-sense oligonucleotide probe, 5′-CCATATTTCCCGCTCOCGTG-3′ (SEQ ID NO: 7) (CCATATTTCCCGCTCGCGTG; all phosphorothioate, sugars by position and methylation of C not given here)
expression of tyrosine kinase Hck protein in oligonucleotide pretreated M-MΦ after infection [2]: no suppression of expression of tyrosine kinase Hck protein was recognized | expression of tyrosine kinase Hck protein in oligonucleotide treated M-MΦ before infection [2]: suppression of expression of tyrosine kinase Hck protein was recognized | p24 protein in culture supernatant of oligonucleotide pretreated M-MΦ [4]: time-dependent increase in p24 protein was recognized

Hck-S: Phosphorothioate-modified sense oligonucleotide probe of Hck, 5′-GCCAGOATOGGGTCGATCAA-3′ (SEQ ID NO: 6)
expression of tyrosine kinase Hck protein in oligonucleotide pretreated M-MΦ after infection [2]: no suppression of expression of tyrosine kinase Hck protein was recognized | expression of tyrosine kinase Hck protein in oligonucleotide treated M-MΦ before infection [2]: suppression of expression of tyrosine kinase Hck protein was recognized | p24 protein in culture supernatant of oligonucleotide pretreated M-MΦ [4]: time-dependent increase in p24 protein was recognized
